Measurements: ChEMBL document CHEMBL6127136, “Discovery of 1-(Phenylsulfonyl)-1,2,3,4-tetrahydroquinoline Derivative as Orally Bioavailable and Safe RORγt Inverse Agonists for Potential Treatment of Rheumatoid Arthritis” (J Med Chem, 2024)
Calls of active or inactive are those of the source. The rule behind the calls is not given here.

Legend:
[1] = AUC (0 to infinity) in male DBA/1 mouse at 5 mg/kg, iv measured after 24 hrs by HPLC analysis; type: ADME, organism-based; conditions: in vivo
[2] = test system: Mus musculus; assay: (§1) Antiinflammatory activity against imiquimod-induced psoriasis-like skin inflammation in Balb/c mouse model assessed as decrease in IL-23 expression in skin at 15 mg/kg, IG preadministered with IMQ for 3 days followed by compound administration from day 4 and measured on day 14 by immunohistochemical analysis; type: functional, organism-based; conditions: time 11.0 day
[3] = test system: Mus musculus; assay: (§2) Antiinflammatory activity against imiquimod-induced psoriasis-like skin inflammation in Balb/c mouse model assessed as decrease in IL-23 expression in skin preadministered with IMQ for 3 days followed by intragastric compound administration from day 4 and measured on day 14 by immunohistochemical analysis; type: functional, organism-based; conditions: dose 5-15 mg/kg, route ig, time 11.0 day
[4] = AUC (0 to t) in male DBA/1 mouse at 5 mg/kg, iv measured after 24 hrs by HPLC analysis; type: ADME, organism-based; conditions: in vivo
[5] = test system: Mus musculus; assay: Antiinflammatory activity against imiquimod-induced psoriasis-like skin inflammation in Balb/c mouse model assessed as reduction in IL-17A level in peripheral blood preadministered with IMQ for 3 days followed by intragastric compound administration from day 4 and measured on day 13 by ELISA; type: functional, organism-based; conditions: dose 5-15 mg/kg, route ig, time 10.0 day
[6] = test system: Mus musculus; assay: as §1, with “IL-17A” for “IL-23”; type: functional, organism-based; conditions: time 11.0 day
[7] = test system: Mus musculus; assay: Antiinflammatory activity against imiquimod-induced psoriasis-like skin inflammation in Balb/c mouse model assessed as reduction in IL-23 level in peripheral blood preadministered with IMQ for 3 days followed by intragastric compound administration from day 4 and measured on day 13 by ELISA; type: functional, organism-based; conditions: dose 5-15 mg/kg, route ig, time 10.0 day
[8] = test system: Mus musculus; assay: Antiinflammatory activity against imiquimod-induced psoriasis-like skin inflammation in Balb/c mouse model assessed as reduction in total psoriasis severity index preadministered with IMQ for 3 days followed by intragastric compound administration from day 4 and measured on day 14; type: functional, organism-based; conditions: dose 10-15 mg/kg, route ig, time 11.0 day
[9] = AUC (0 to t) in male DBA/1 mouse at 20 mg/kg, po measured after 24 hrs by HPLC analysis; type: ADME, organism-based; conditions: in vivo
[10] = test system: Mus musculus; assay: as §2, with “IL-17F” for “IL-23”; type: functional, organism-based; conditions: dose 5-15 mg/kg, route ig, time 11.0 day
[11] = test system: Mus musculus; assay: as §1, with “reduction” for “decrease”, “mononuclear cell infiltration” for “IL-23 expression”, “H and E staining based” for “immunohistochemical”; type: functional, organism-based; conditions: time 11.0 day
[12] = test system: HUVEC; assay: Antiproliferative activity against HUVEC cells assessed as inhibition of colony formation at 2 to 8 uM incubated for 7 days by crystal violet staining based light microscopic analysis; type: toxicity, cell-based; conditions: human, 168 h, dose 2-8 µM, time 7 day
[13] = Cmax in male DBA/1 mouse at 5 mg/kg, iv measured after 24 hrs by HPLC analysis; type: ADME, organism-based; conditions: in vivo
[14] = biological target: T1, Nuclear receptor ROR-gamma (Homo sapiens, UniProt P51449); assay: Inverse agonist activity at N-terminal 6-His-tagged/APC-labeled human RORgammat LBD extracted from Escherichia coli assessed as inhibition of europium-labeled SRC-1 recruitment incubated for 3 hrs by TR-FRET analysis
T1 sequence (P51449 whole entry): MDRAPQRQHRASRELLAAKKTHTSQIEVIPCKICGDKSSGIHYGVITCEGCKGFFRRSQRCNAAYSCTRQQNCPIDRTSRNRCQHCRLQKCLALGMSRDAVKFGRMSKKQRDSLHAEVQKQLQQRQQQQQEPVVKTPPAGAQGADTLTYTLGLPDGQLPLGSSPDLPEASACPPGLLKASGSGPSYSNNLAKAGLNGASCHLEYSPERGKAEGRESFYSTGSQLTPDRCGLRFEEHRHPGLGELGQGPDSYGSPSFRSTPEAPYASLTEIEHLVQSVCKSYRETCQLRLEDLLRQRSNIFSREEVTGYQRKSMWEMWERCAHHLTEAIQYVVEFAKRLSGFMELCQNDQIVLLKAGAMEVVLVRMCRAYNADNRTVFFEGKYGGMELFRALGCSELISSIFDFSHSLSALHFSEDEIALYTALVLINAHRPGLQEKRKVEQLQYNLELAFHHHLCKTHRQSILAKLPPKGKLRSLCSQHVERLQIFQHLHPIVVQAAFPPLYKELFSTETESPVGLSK

[15] = Half-life in male DBA/1 mouse at 20 mg/kg, po measured after 24 hrs by HPLC analysis; type: ADME, organism-based; conditions: in vivo
[16] = Clearance in male DBA/1 mouse at 5 mg/kg, iv measured after 24 hrs by HPLC analysis; type: ADME, organism-based; conditions: in vivo
[17] = test system: Mus musculus; assay: as §2, with “IL-17A” for “IL-23”; type: functional, organism-based; conditions: dose 5-15 mg/kg, route ig, time 11.0 day
[18] = biological target: T1, Nuclear receptor ROR-gamma; assay: Inverse agonist activity at GAL4 DNA-binding domain fused RORgamma (unknown origin) transfected in HEK293T cells co-transfected with GAL4-promoter driven luciferase reporter gene assessed as inhibition of RORgammat transcription incubated for 18 to 20 hrs by plate reader analysis; type: cell-based
[19] = test system: HeLa; assay: Antiproliferative activity against human HeLa cells assessed as inhibition of colony formation at 2 to 8 uM incubated for 7 days by crystal violet staining based light microscopic analysis; type: toxicity, cell-based; conditions: 168 h, dose 2-8 µM, time 7 day
[20] = Oral bioavailability in male DBA/1 mouse at 20 mg/kg measured after 24 hrs by HPLC analysis; type: ADME, organism-based; conditions: in vivo
[21] = test system: Mus musculus; assay: Antiinflammatory activity against imiquimod-induced psoriasis-like skin inflammation in Balb/c mouse model assessed as reduction in IL-17F level in peripheral blood preadministered with IMQ for 3 days followed by intragastric compound administration from day 4 and measured on day 13 by ELISA; type: functional, organism-based; conditions: dose 5-15 mg/kg, route ig, time 10.0 day
[22] = Tmax in male DBA/1 mouse at 20 mg/kg, po measured after 24 hrs by HPLC analysis; type: ADME, organism-based; conditions: in vivo
[23] = test system: Mus musculus; assay: as §1, with “IL-17F” for “IL-23”; type: functional, organism-based; conditions: time 11.0 day
[24] = Half-life in male DBA/1 mouse at 5 mg/kg, iv measured after 24 hrs by HPLC analysis; type: ADME, organism-based; conditions: in vivo
[25] = AUC (0 to infinity) in male DBA/1 mouse at 20 mg/kg, po measured after 24 hrs by HPLC analysis; type: ADME, organism-based; conditions: in vivo
[26] = Cmax in male DBA/1 mouse at 20 mg/kg, po measured after 24 hrs by HPLC analysis; type: ADME, organism-based; conditions: in vivo
[27] = test system: Mus musculus; assay: as §1, with “reduction” for “decrease”, “inflammatory cell infiltration” for “IL-23 expression”, “H and E staining based” for “immunohistochemical”; type: functional, organism-based; conditions: time 11.0 day
[28] = Tmax in male DBA/1 mouse at 5 mg/kg, iv measured after 24 hrs by HPLC analysis; type: ADME, organism-based; conditions: in vivo
[29] = test system: Mus musculus; assay: as §1, with “dermal telangiectasia” for “IL-23 expression in skin”, “H and E staining based” for “immunohistochemical”; type: functional, organism-based; conditions: time 11.0 day
[30] = test system: Mus musculus; assay: Antiinflammatory activity against imiquimod-induced psoriasis-like skin inflammation in Balb/c mouse model assessed as reduction in total psoriasis area preadministered with IMQ for 3 days followed by intragastric compound administration from day 4 and measured on day 14; type: functional, organism-based; conditions: dose 10-15 mg/kg, route ig, time 11.0 day
[31] = Toxicity in imiquimod-induced psoriasis-like skin inflammation Balb/c mouse model assessed as change in body weight at 5 to 15 mg/kg, IG preadministered with IMQ for 3 days followed by compound administration from day 4 and measured on day 14; type: organism-based; conditions: in vivo, po, 264 h, dose 5-15 mg/kg, time 11 day
[32] = test system: Mus musculus; assay: Antiinflammatory activity against imiquimod-induced psoriasis-like skin inflammation in Balb/c mouse model assessed as attenuation of skin layer thickening at 15 mg/kg, IG preadministered with IMQ for 3 days followed by compound administration from day 4 and measured on day 14 by H and E staining based analysis; type: functional, organism-based; conditions: time 11.0 day

CCC1CCc2cc(C(C)C)ccc2N1S(=O)(=O)c1ccc(OCC2CCOCC2)c(CO)c1 (racemic)
AUC(0-inf) [1]: 1020 ng·h/mL
Activity [2]: Active
Activity [3]: Dose-Dependent Effect
AUC(0-t) at 24 h [4]: 995 ng·h/mL
Activity [5]: Dose-Dependent Effect
Activity [6]: Active
Activity [7]: Dose-Dependent Effect
Activity [8]: Dose-Dependent Effect
AUC(0-t) at 24 h [9]: 1890 ng·h/mL
Activity [10]: Dose-Dependent Effect
Activity [11]: Active
Activity [12]: Non-Toxic
Cmax [13]: 1210 ng/mL
IC50 [14]: 3.5 nM
half-life [15]: 4.67 h
clearance [16]: 81.9 mL/min/kg
Activity [17]: Dose-Dependent Effect
IC50 [18]: 21 nM
Activity [19]: Non-Toxic
bioavailability [20]: 48.1%
Activity [21]: Dose-Dependent Effect
Tmax [22]: 0.5 h
Activity [23]: Active
half-life [24]: 3.87 h
AUC(0-inf) [25]: 1960 ng·h/mL
Cmax [26]: 485 ng/mL
Activity [27]: Active
Tmax [28]: 4.98 min
Activity [29]: Active
Activity [30]: Dose-Dependent Effect
Activity [31]: Non-Toxic
Activity [32]: Active
